Source: patent US10242153B2, “Method for determining the risk profile of neoplastic tissue” (NOVAZOI THERANOSTICS, priority 2014, dated 2019)

Tests used:
ZR-75-30 cells [1] = assay: Induction of extra centrosomes and markers in ZR-75-30 cells by aphidicolin; assay type: cell-based
Description: Next, centrosome amplification was evaluated to determine the extent to which it directly and independently impacts the migration potential of a mildly aggressive cell line, ZR-75-30. […] In particular, it was of interest to evaluate whether generation of extra centrosomes (by genetic and pharmacological means) impacts migration and invasion kinetics by experimentally inducing centrosome amplification in these cells by aphidicolin treatment (5 μg/ml for 24 h).
Upon treatment with aphidicolin, centrosome amplification was confirmed by immunofluorescence staining for γ-tubulin (green) (data not shown) and changes in γ-tubulin and centrin levels detectable by Western blot analysis.
Accordingly, these cells can be pharmacologically manipulated with aphidicolin to generate extra centrosomes. […] Following aphidicolin wash-out, cells were stained using anti-centrin-2 antibodies to verify extra centrosomes by immunofluorescence confocal microscopy. About ˜60% ZR-75-30 cells generated extra centrosomes (6-8 per cell) and were evaluated for their sensitivity to the three drugs, griseofulvin, bromonoscapine, and PJ34, and compared with parent ZR-75-30 cells with normal centrosomes.

ZR-75-30 cells [2] = assay: Wound healing assay, ZR-75-30 cells; assay type: cell-based; conditions: aphidicolin-treated cells; control 40 h
Description: (§1) To assess the migratory capacity of aphidicolin treated cells (˜60% cells harboring extra centrosomes) as compared to control cells, a a classical wound healing assay was performed.

ZR-75-30 cells [3] = assay: Boyden chamber invasion assay, ZR-75-30 cells; assay type: cell-based; conditions: aphidicolin-treated cells
Description: Trajectories of 10 cells each were captured over 18 h with 108 images per movie (6 frames/h). Data were analyzed using Volocity3.0 software (Improvision, Coventry, UK), whereby average net displacement, displacement rate and velocity measurements were generated for the identified cell tracks with respect to cell centroids. Quantitation of net displacement (Panel A), displacement rate (Panel B) and track velocity (Panel C) for cells with 1 and >2 centrosomes are shown as bar graphs. […] Panel E depicts a bar graph showing quantitation of migration rate of treated and untreated ZR-75-30 cells in a wound healing assay. Panel F depicts a bar graph showing the number of migrated cells in a Boyden chamber assay performed with aphidicolin-treated (APD) and untreated (C) ZR-75-30 cells.
as §1

KIFC1 = KIFC1 (Homo sapiens, UniProt Q9BW19); conditions: ATP-competitive and MT-noncompetitive; cited from earlier work
[4] = test system: BT-549 breast cancer cells; conditions: BT-549 cells with amplified centrosomes; cited from earlier work
[5] = test system: MDA-MB-231 breast cancer cells; assay: Spindle multipolarity and cell death, MDA-MB-231 cells; assay type: cell-based, human; conditions: 18 h, 10 μM
Description: To investigate a possible role for centrosome declustering drugs (such as brominated noscapines) to induce high-grade spindle multipolarity leading to cell death during mitosis, MDA-MB-231 breast cancer cells were treated with brominated noscapine. “Scattering” of amplified centrosomes in MDA-MB-231 breast cancer cells upon treatment with brominated noscapine was observed (data not shown). […] Based upon this metaphasic occurrence of cell death, this caspase-mediated cellular demise reflects a “metaphase catastrophe”.

[6] = test system: MCF-10A near normal breast epithelial cells; assay: Spindle multipolarity and cell death, MCF-10A cells; assay type: cell-based; conditions: same concentration (10 μM)

Sequence of KIFC1 (Q9BW19 whole entry): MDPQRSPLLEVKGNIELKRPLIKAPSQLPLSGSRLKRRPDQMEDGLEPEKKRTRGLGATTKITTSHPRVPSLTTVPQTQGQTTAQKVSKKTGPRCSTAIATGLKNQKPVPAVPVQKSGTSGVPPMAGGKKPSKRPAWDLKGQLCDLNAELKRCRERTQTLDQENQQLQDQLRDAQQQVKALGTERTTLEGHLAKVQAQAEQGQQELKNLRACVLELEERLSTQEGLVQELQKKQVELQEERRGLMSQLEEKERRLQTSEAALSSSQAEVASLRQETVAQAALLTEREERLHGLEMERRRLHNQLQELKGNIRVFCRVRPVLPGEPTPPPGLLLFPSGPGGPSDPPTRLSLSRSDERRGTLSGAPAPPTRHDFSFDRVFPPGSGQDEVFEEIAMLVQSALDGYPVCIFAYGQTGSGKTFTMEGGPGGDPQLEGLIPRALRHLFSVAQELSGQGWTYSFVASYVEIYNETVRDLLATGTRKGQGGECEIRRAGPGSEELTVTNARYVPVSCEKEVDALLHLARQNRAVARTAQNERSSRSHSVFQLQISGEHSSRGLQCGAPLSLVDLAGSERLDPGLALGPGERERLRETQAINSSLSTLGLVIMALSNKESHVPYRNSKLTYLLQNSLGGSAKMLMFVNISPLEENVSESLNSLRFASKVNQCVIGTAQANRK
Sequence of KIFC1 (P68363 whole entry partner): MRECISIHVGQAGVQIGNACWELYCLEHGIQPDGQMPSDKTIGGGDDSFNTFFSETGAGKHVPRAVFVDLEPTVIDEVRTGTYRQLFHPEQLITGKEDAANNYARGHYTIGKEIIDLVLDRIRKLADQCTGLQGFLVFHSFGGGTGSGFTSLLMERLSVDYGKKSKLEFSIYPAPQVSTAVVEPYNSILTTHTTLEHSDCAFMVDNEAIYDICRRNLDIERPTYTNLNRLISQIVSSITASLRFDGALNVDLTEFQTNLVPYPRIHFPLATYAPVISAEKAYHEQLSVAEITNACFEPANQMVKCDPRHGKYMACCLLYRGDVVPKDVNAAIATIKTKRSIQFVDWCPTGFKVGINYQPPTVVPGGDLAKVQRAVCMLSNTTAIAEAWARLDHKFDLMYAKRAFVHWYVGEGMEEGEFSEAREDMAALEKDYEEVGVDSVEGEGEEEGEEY
Sequence of KIFC1 (Q9BVA1 whole entry partner): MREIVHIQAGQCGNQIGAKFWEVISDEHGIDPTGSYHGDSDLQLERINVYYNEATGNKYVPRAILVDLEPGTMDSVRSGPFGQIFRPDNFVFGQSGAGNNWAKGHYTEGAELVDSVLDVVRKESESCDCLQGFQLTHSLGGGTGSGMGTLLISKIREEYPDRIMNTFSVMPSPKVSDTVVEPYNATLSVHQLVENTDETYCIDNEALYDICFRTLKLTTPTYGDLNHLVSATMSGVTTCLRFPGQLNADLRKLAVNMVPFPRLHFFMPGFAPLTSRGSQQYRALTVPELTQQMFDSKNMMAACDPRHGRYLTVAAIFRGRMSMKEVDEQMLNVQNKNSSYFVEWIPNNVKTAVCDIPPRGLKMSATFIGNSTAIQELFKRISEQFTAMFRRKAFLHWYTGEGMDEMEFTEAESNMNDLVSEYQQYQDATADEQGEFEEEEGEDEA

Compound: C[C@@]1(CO)[C@H](O)CC[C@@]2(C)[C@H]1CC[C@H]1C[C@@H]3C[C@@]12CC[C@]3(O)CO [aphidicolin]
- cells harboring extra centrosomes (ZR-75-30 cells [1]; 5 μg/ml for 24 h): ~60%
- extra centrosomes per cell (ZR-75-30 cells [1]; 24 h treatment, after wash-out): 6-8 per cell
- vimentin levels (immunoblot) (ZR-75-30 cells [1]; following aphidicolin treatment): significant increase in vimentin levels
- time to fill the scratch wound (ZR-75-30 cells [2]): 18 h
- invasion capacity (ZR-75-30 cells [3]): increase in invasion capacity

Compound: CCCc1cc(C(=O)N[C@H](Cc2ccc(-c3cccc(OC(F)(F)F)c3)nc2)C(=O)N[C@@H]2CCNC2)sc1C [AZ82]
- Ki (KIFC1): 43 nM
- centrosome declustering [4]: causes centrosome declustering

Compound: brominated noscapine
- spindle phenotype and cell death [5]: highly aberrant multipolar spindles that succumb to cell death
- spindle multipolarity and cell death [6]: did not exhibit any multipolarity or cell death
